In US20220354949A1, “NOVEL COMPOUNDS” (XENIOPRO GmbH, priority 2018, published 2022):

Tested on: Notch signaling (human Notch1 receptor, hNotch1ΔE, CSL luciferase reporter in HeLa cells)
Assay: Notch reporter assay (dual luciferase, HeLa cells transfected with hNotch1ΔE)
Type: cell-based
Conditions: compounds and controls at 10 μM
Text: The activation level of Notch signaling can be quantified in vitro reliably by measuring the expression levels of Notch specific target genes. This can be accomplished by the quantification of corresponding mRNA or protein of a particular Notch target gene. Alternatively, cells can be genetically modified to carry a luciferase gene as an artificial Notch target gene, which is expressed in dependence of Notch activity. In this setting, Notch signaling levels can be quantified by measuring the luciferase-derived bioluminescence values.
An according Notch-reporter assay, i.e. a luciferase-based luminescence readout, was used here to quantify the ability of the claimed compounds to augment Notch signaling in a cellular system. […] After 24 hours of transfection, the transfected cells were carefully detached from the dish using 0.5 mM EDTA in PBS and seeded into 96-well plates suitable for luminescence readouts (CORNING, #3610) at 10′000 cells per well. […] Directly after the lysis, first the Firefly and then the Renilla luciferase values were measured consecutively from the same well with a luminescence reader immediately after applying 15 μL per well each of the corresponding enzyme substrates needed to create the luminescence signals (Promega, Dual-Luciferase® Reporter Assay System, #E1910). […]

Oc1ccc(C=Cc2cc(O)cc(O)c2)cc1 [RES, Resveratrol]
Activity Range: weighted arithmetic mean (AVEw) of double-normalized Notch-reporter luminescence, relative to DMSO basis level of 1.0: 1.9 ± 0.5
